Results as given in US11149043B2 (Calico Life Sciences LLC, priority 2018, dated 2021).
In brackets after ≈: the same amount, converted by molar mass. Structures can show the parent of a compound that is named as a salt.

experiment: Solubility assay (high throughput 96-well plate, pH 7.4 phosphate buffer); format: physicochemical; conditions: aqueous buffer, thermodynamic from solid, shaken two days at room temperature, UV-UPLC
Protocol: Solubility measurements were performed using a high throughput 96-well plate based assay. For this, 0.2 mg of sample compound was weighed and added to a sample plate in triplicate and 650 μL of pH 7.4 phosphate buffer was added. The sample plate was capped, allowed to shake on a plate shaker for two days at room temperature, and then centrifuged (2000 rpm, 10 minutes) to settle undissolved solids. Approximately 600 μL of the aqueous supernatant slurry from each sample plate was transferred to a filter plate mounted on top of a receiver plate. Vacuum was applied to collect the filtrate. Appropriate dilutions were made in 50/50 methanol/water and quantification for concentration was performed against known standards by UV-UPLC. Some preferred compounds of the invention have greater solubility than the parent compound (P), N,N′-[(2S)-2-hydroxybicyclo[2.2.2]octane-1,4-diyl]bis[2-(4-chloro-3-fluorophenoxy)acetamide].

| Structure (SMILES) | solubility at 2 days |
| --- | --- |
| CC(=O)O[C@H]1CC2(NC(=O)COc3ccc(Cl)c(F)c3)CCC1(NC(=O)COc1ccc(Cl)c(F)c1)CC2 (single isomer, unassigned) [Compound 100] | < 0.82 µM |
| O=C(COc1ccc(Cl)c(F)c1)NC12CCC(NC(=O)COc3ccc(Cl)c(F)c3)(CC1)[C@@H](OC(=O)NCCOP(=O)(O)O)C2 [Compound 117] | 598 µM (≈ 416 µg/mL) |
| O=C(COc1ccc(Cl)c(F)c1)NC12CCC(NC(=O)COc3ccc(Cl)c(F)c3)(CC1)[C@@H](OC(=O)Cc1ccccc1OP(=O)(O)O)C2 [Compound 115] | 936 µM (≈ 696 µg/mL) |
| CN(C(=O)O[C@H]1CC2(NC(=O)COc3ccc(Cl)c(F)c3)CCC1(NC(=O)COc1ccc(Cl)c(F)c1)CC2)c1ncccc1COP(=O)(O)O [Compound 116, (2S)-1,4-bis[2-(4-chloro-3-fluorophenoxy)acetamido]bicyclo[2.2.2]octan-2-yl methyl{3-[(phosphonooxy)methyl]pyridin-2-yl}carbamate] | 903 µM (≈ 698 µg/mL) |
| N[C@@H](CC(=O)O[C@H]1CC2(NC(=O)COc3ccc(Cl)c(F)c3)CCC1(NC(=O)COc1ccc(Cl)c(F)c1)CC2)C(=O)O [Compound 102, (2S)-2-amino-4-({(2S)-1,4-bis[2-(4-chloro-3-fluorophenoxy)acetamido]bicyclo[2.2.2]octan-2-yl}oxy)-4-oxobutanoic acid] | 59 µM (≈ 38 µg/mL) |

Now from value to compound:

| solubility at 2 days | Structure (SMILES) |
| --- | --- |
| 317 µM (≈ 229 µg/mL) | CC(C)(COP(=O)(O)O)CC(=O)O[C@H]1CC2(NC(=O)COc3ccc(Cl)c(F)c3)CCC1(NC(=O)COc1ccc(Cl)c(F)c1)CC2 [Compound 122, (2S)-1,4-bis[2-(4-chloro-3-fluorophenoxy)acetamido]bicyclo[2.2.2]octan-2-yl 3,3-dimethyl-4-(phosphonooxy)butanoate] |
| > 1000 µM | O=C(COc1ccc(Cl)c(F)c1)NC12CCC(NC(=O)COc3ccc(Cl)c(F)c3)(CC1)[C@@H](OC(=O)OCCOP(=O)(O)O)C2 [Compound 121, (2S)-1,4-bis[2-(4-chloro-3-fluorophenoxy)acetamido]bicyclo[2.2.2]octan-2-yl 2-(phosphonooxy)ethyl carbonate] |
| 812 µM (≈ 565 µg/mL) | O=C(COc1ccc(Cl)c(F)c1)NC12CCC(NC(=O)COc3ccc(Cl)c(F)c3)(CC1)[C@@H](OC(=O)CCCOP(=O)(O)O)C2 [Compound 120, (2S)-1,4-bis[2-(4-chloro-3-fluorophenoxy)acetamido]bicyclo[2.2.2]octan-2-yl 4-(phosphonooxy)butanoate] |
| > 1000 µM | O=C(COc1ccc(Cl)c(F)c1)NC12CCC(NC(=O)COc3ccc(Cl)c(F)c3)(CC1)[C@@H](OCOP(=O)(O)O)C2 [Compound 131, ({(2S)-1,4-bis[2-(4-chloro-3-fluorophenoxy)acetamido]bicyclo[2.2.2]octan-2-yl}oxy)methyl dihydrogen phosphate] |
| 645 µM (≈ 458 µg/mL) | O=C(COc1ccc(Cl)c(F)c1)NC12CCC(NC(=O)COc3ccc(Cl)c(F)c3)(CC1)[C@@H](OC(=O)CCCCOP(=O)(O)O)C2 [Compound 127, (2S)-1,4-bis[2-(4-chloro-3-fluorophenoxy)acetamido]bicyclo[2.2.2]octan-2-yl 5-(phosphonooxy)pentanoate] |
| 152 µM | O=C(COc1ccc(Cl)c(F)c1)NC12CCC(NC(=O)COc3ccc(Cl)c(F)c3)(CC1)[C@@H](OS(=O)(=O)O)C2 [Compound 125, (2S)-1,4-bis[2-(4-chloro-3-fluorophenoxy)acetamido]bicyclo[2.2.2]octan-2-yl hydrogen sulfate] |
